Experimental data taken from US4199500A, “Peptides related to somatostatin” (Eli Lilly and Company, priority 1978, dated 1980).
Positions of bridges follow the written chain, without caps; N, C: chain ends. Non-standard residues stand in square brackets, D forms with d. Residues, ends and D or L forms follow the SMILES beside them.

Tests used:
[1] = test system: serum glucagon; assay: Glucagon Inhibition In Dogs (I.V. infusion, L-alanine stimulation, serum glucagon by radioimmunoassay); type: in vivo, dog
Procedure: (§1) B. Insulin and Glucagon Inhibition In Dogs:
(§2) A normal dog is fasted overnight. An intravenous (I.V.) infusion of the test compound (dissolved in saline) is begun. Thirty minutes thereafter an additional infusion of L-alanine (dissolved in saline) is begun and is continued for a total of 15 minutes so that a total dose of about 1 mmole of L-alanine per kg. body weight is given. Infusion of the test compound is continued for an additional 15 minute period.
(§3) Blood samples are taken periodically before (at -20, -10 and -1 minutes) and after (5, 10, 15, 30, 35, 40, 45, 50, 60, 90, 120 and 150 minutes) the start of the infusion of the test compound. The serum insulin and serum glucagon concentrations in the blood are determined by radioimmunoassay. A plot is made of the glucagon and insulin concentrations versus time. The plot obtained from the test compound is compared to plots obtained from somatostatin and saline (controls) in similar experiments.
(§4) Infusion of L-alanine (in the absence of somatostatin or active test compound) causes an abrupt increase in serum insulin and glucagon concentrations. The concentrations return to basal levels after the L-alanine infusion is terminated.

[2] = test system: serum insulin; assay: Insulin Inhibition In Dogs (I.V. infusion, L-alanine stimulation, serum insulin by radioimmunoassay); type: in vivo, dog
Procedure: as §1, §2, §3, §4

[3] = test system: growth hormone (GH) secretion; assay: Growth Hormone Inhibition In Rats (pentobarbital-stimulated GH secretion, serum GH by radioimmunoassay); type: in vivo; conditions: male rats; for % Inhibition of GH release (as compared to control): compared to saline control; for Serum Growth Hormone Conc. Mean ± SEM: sodium pentobarbital 4 mg/rat I.P., 20 minutes after dosing
Procedure: A. Growth Hormone Inhibition In Rats:
This test is a modification of the method of P. Brazeau et al. Endocrinology, 94, 184 (1974). Male rats (weighing 100-110 g.) are divided into three groups of eight rats each. Each rat is administered sodium pentobarbital at a dose of 4 mg/rat (I.P.) to stimulate growth hormone (GH) secretion. Simultaneously, one group of rats receives the test compound (S.C.); the second group receives somatostatin (S.C.); and the third group (control) receives saline (S.C.). Twenty-minutes later, the animals are decapitated and blood samples are collected. The serum concentration of growth hormone (GH) is determined by radioimmunoassay. The mean GH concentration (± standard error of the mean) is calculated for each group. The percent inhibition of GH release (as compared to saline controls) is then calculated for the test compound and for somatostatin. When tested as above-described, the peptide of Example 4 (D-Ala^2, Ala^5, D-Trp^8, Val^10, D-Phe^11 -Somatostatin) representative of the peptides of Formula III, gave the results set forth below in Table I: […]

[4] = normal fasted dog, I.V. infusion 0.237 μg/Kg./min, L-alanine infusion
[5] = dog, in the presence of L-alanine
[6] = dog, infusion alone (no L-alanine)

Compound	inhibition of glucagon concentration [1, 4]	inhibition of insulin concentration [2, 4]	% Inhibition of GH release (as compared to control) ([3]; dose 2 mg/kg S.C.) [%]	Serum Growth Hormone Conc. Mean ± SEM ([3]; dose 2 mg/kg S.C.) [ng/mL]	% Inhibition of GH release (as compared to control) ([3]; dose 50 mg/kg S.C.) [%]	Serum Growth Hormone Conc. Mean ± SEM ([3]; dose 50 mg/kg S.C.) [ng/mL]	effect on increase in glucagon concentration induced by L-alanine [1, 5]	effect on basal serum concentration of glucagon [1, 6]	effect on increase in insulin concentration induced by L-alanine [2, 5]	effect on basal serum concentration of insulin [2, 6]
CC(C)[C@@H]1NC(=O)[C@H](CCCCN)NC(=O)[C@@H](Cc2c[nH]c3ccccc23)NC(=O)[C@H](Cc2ccccc2)NC(=O)[C@H](Cc2ccccc2)NC(=O)[C@H](C)NC(=O)[C@H](CCCCN)NC(=O)[C@@H](NC(=O)[C@@H](C)NC(=O)[C@H](C)N)CSSC[C@@H](C(=O)O)NC(=O)[C@H](CO)NC(=O)[C@H]([C@@H](C)O)NC(=O)[C@@H](Cc2ccccc2)NC1=O [Example 4, L-Alanyl-D-alanyl-L-cysteinyl-L-lysyl-L-alanyl-L-phenylalanyl-L-phenylalanyl-D-tryptophyl-L-lysyl-L-valyl-D-phenyl-alanyl-L-threonyl-L-seryl-L-cysteine cyclic (3->14) disulfide] (H-A[dA]CKAFF[dW]KV[dF]TSC-OH; disulfide 3-14)	no significant inhibition	no significant inhibition	7.8	61 ± 24	66	97 ± 39	–	–	–	–
C[C@H](N)C(=O)NCC(=O)N[C@H]1CSSC[C@@H](C(=O)O)NC(=O)[C@H](CO)NC(=O)[C@H]([C@@H](C)O)NC(=O)[C@H](Cc2ccccc2)NC(=O)[C@H]([C@@H](C)O)NC(=O)[C@H](CCCCN)NC(=O)[C@H](Cc2c[nH]c3ccccc23)NC(=O)[C@H](Cc2ccccc2)NC(=O)[C@H](Cc2ccccc2)NC(=O)[C@H](CC(N)=O)NC(=O)[C@H](CCCCN)NC1=O [Somatostatin]	–	–	63	105 ± 69	93	–	inhibits the increase	causes a decrease	inhibits the increase	causes a decrease
